Reference: PubChem BioAssay AID330 (DTP/NCI, 2004)
“And” between values parts separate entries of the source, which are not always exact repeats. Identical values can stand only once. Toxic doses and inconclusive results are not listed.

Test system: P388 leukemia ip, CD2F1 mice, survival T/C
Experiment: NCI In Vivo Anticancer Drug Screen. Data for tumor model P388 Leukemia (intraperitoneal) in CD2F1 (CDF1) mice
Conditions: endpoint: median survival time, higher = longer survival
Summary of the method: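 Mice carrying the transplanted tumor received test compound or vehicle. Survival was recorded in each group, and the value is the treated-group measurement divided by that of the vehicle-treated control group.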

[1] = dose: 100.0 mg/kg/injection, schedule: Q04DX003 (ip), vehicle: saline
[2] = dose: 200.0 mg/kg/injection, schedule: Q04DX003 (ip), vehicle: saline
[3] = dose: 400.0 mg/kg/injection, schedule: Q04DX003 (ip), vehicle: saline
[4] = dose: 50.0 mg/kg/injection, schedule: Q01DX005 (ip), vehicle: saline with Tween-80
[5] = dose: 100.0 mg/kg/injection, schedule: Q01DX005 (ip), vehicle: saline with Tween-80
[6] = dose: 200.0 mg/kg/injection, schedule: Q01DX005 (ip), vehicle: saline with Tween-80
[7] = dose: 50.0 mg/kg/injection, schedule: Q01DX009 (ip), vehicle: Klucel (hydroxypropylcellulose) (HPC)
[8] = dose: 100.0 mg/kg/injection, schedule: Q01DX009 (ip), vehicle: Klucel (hydroxypropylcellulose) (HPC)
[9] = dose: 50.0 mg/kg/injection, schedule: Q01DX005 (ip), vehicle: Klucel (hydroxypropylcellulose) (HPC)
[10] = dose: 100.0 mg/kg/injection, schedule: Q01DX005 (ip), vehicle: Klucel (hydroxypropylcellulose) (HPC)
[11] = dose: 200.0 mg/kg/injection, schedule: Q01DX005 (ip), vehicle: Klucel (hydroxypropylcellulose) (HPC)
[12] = dose: 100.0 mg/kg/injection, schedule: Q01DX001 (ip), vehicle: Klucel (hydroxypropylcellulose) (HPC)
[13] = dose: 25.0 mg/kg/injection, schedule: Q01DX001 (ip), vehicle: Klucel (hydroxypropylcellulose) (HPC)
[14] = dose: 50.0 mg/kg/injection, schedule: Q01DX001 (ip), vehicle: Klucel (hydroxypropylcellulose) (HPC)

With `C=Cn1c([N+](=O)[O-])cnc1/C=C/c1ccc(C(=O)NC(C)CC)cc1` (configuration not stated) the T/C (dose: 100.0 mg/kg/injection, schedule: Q04DX002 (ip), vehicle: gum acacia) was 93 % of control, the T/C (dose: 200.0 mg/kg/injection, schedule: Q04DX002 (ip), vehicle: gum acacia) was 91 % of control and the T/C (dose: 400.0 mg/kg/injection, schedule: Q04DX002 (ip), vehicle: gum acacia) was 96 % of control.
`Cc1ccc(S(=O)(=O)/N=C/[N-][n+]2cccc(C)c2)cc1` was tested, and the T/C [1] was 104 % of control, the T/C [2] was 97 % of control and the T/C [3] was 97 % of control.
With `COc1cc(C/C(=C/c2ccc(OC)c3occc23)[N+](=O)[O-])cc(OC)c1OC` the T/C [4] was 98 % of control, the T/C [5] was 107 % of control and the T/C [6] was 113 % of control.
In the case of `CCOC(=O)C(Cc1ccc(N(CCCl)CCCl)cc1)NC(=O)C(CC(C)C)NC(C)=O` (configuration not stated), the T/C (dose: 3.12 mg/kg/injection, schedule: Q01DX009 (ip), vehicle: Klucel (hydroxypropylcellulose) (HPC)) is reported as 162 % of control, the T/C (dose: 5.0 mg/kg/injection, schedule: Q04DX003 (ip), vehicle: water) is reported as 105 % of control and the T/C (dose: 6.25 mg/kg/injection, schedule: Q01DX009 (ip), vehicle: Klucel (hydroxypropylcellulose) (HPC)) is reported as 172 % of control. The T/C (dose: 10.0 mg/kg/injection, schedule: Q04DX003 (ip), vehicle: water) was 107 % of control, the T/C (dose: 12.5 mg/kg/injection, schedule: Q01DX009 (ip), vehicle: Klucel (hydroxypropylcellulose) (HPC)) was 241 % of control and 254 % of control and the T/C (dose: 20.0 mg/kg/injection, schedule: Q04DX003 (ip), vehicle: water) was 108 % of control. For the same molecule, the T/C (dose: 25.0 mg/kg/injection, schedule: Q01DX009 (ip), vehicle: Klucel (hydroxypropylcellulose) (HPC)) was 119 % of control, the T/C (dose: 40.0 mg/kg/injection, schedule: Q04DX003 (ip), vehicle: other) was 122 % of control and the T/C (dose: 40.0 mg/kg/injection, schedule: Q04DX003 (ip), vehicle: water) was 109 % of control. For the same molecule, the T/C [7] was 104 % of control and 97 % of control and the T/C (dose: 80.0 mg/kg/injection, schedule: Q04DX003 (ip), vehicle: other) was 116 % of control.
In the case of `NNC(=O)CCCO`, the T/C (dose: 50.0 mg/kg/injection, schedule: Q04DX003 (ip), vehicle: saline) is reported as 105 % of control, the T/C [1] is reported as 98 % of control and the T/C [2] is reported as 103 % of control. For the same molecule, the T/C [3] was 105 % of control.
For `CC[NH-].CC[NH-].[Cl][Pt+2][Cl]`, the T/C (dose: 3.12 mg/kg/injection, schedule: Q01DX009 (ip), vehicle: saline) was 150 % of control, the T/C (dose: 3.12 mg/kg/injection, schedule: Q01DX009 (ip), vehicle: suspension in saline) was 116 % of control and the T/C (dose: 6.25 mg/kg/injection, schedule: Q01DX009 (ip), vehicle: saline) was 162 % of control. For the same molecule, the T/C (dose: 12.5 mg/kg/injection, schedule: Q01DX009 (ip), vehicle: saline) was 159 % of control and the T/C (dose: 12.5 mg/kg/injection, schedule: Q01DX009 (ip), vehicle: suspension in saline) was 97 % of control.
For `Cc1c(N=Nc2cccc(F)c2)c(-c2ccccc2)nn1C(N)=S`, the T/C (dose: 12.5 mg/kg/injection, schedule: Q01DX005 (ip), vehicle: saline with Tween-80) was 95 % of control, the T/C (dose: 25.0 mg/kg/injection, schedule: Q01DX005 (ip), vehicle: saline with Tween-80) was 95 % of control and the T/C [4] was 101 % of control.
In the case of `Cc1ccc2c(c1)C(=O)CC=C(C(=O)O)N2`, the T/C [8] is reported as 98 % of control, the T/C (dose: 200.0 mg/kg/injection, schedule: Q01DX009 (ip), vehicle: Klucel (hydroxypropylcellulose) (HPC)) is reported as 104 % of control and the T/C (dose: 400.0 mg/kg/injection, schedule: Q01DX009 (ip), vehicle: Klucel (hydroxypropylcellulose) (HPC)) is reported as 111 % of control. The T/C (dose: 600.0 mg/kg/injection, schedule: Q01DX009 (ip), vehicle: Klucel (hydroxypropylcellulose) (HPC)) was 89 % of control.
`O=C(NC(=O)c1c(F)cccc1F)Nc1ccc(Cl)nc1` was tested, and the T/C (dose: 3.13 mg/kg/injection, schedule: Q01DX009 (ip), vehicle: saline with Tween-80) was 105 % of control, the T/C (dose: 6.25 mg/kg/injection, schedule: Q01DX009 (ip), vehicle: saline with Tween-80) was 100 % of control and the T/C (dose: 12.5 mg/kg/injection, schedule: Q01DX009 (ip), vehicle: saline with Tween-80) was 102 % of control.
For `O=c1nc(-c2ccc3c(c2)OCO3)sc(=O)[nH]1`, the T/C (dose: 50.0 mg/kg/injection, schedule: Q01DX009 (ip), vehicle: saline with Tween-80) was 111 % of control, the T/C (dose: 100.0 mg/kg/injection, schedule: Q01DX009 (ip), vehicle: saline with Tween-80) was 107 % of control and the T/C (dose: 200.0 mg/kg/injection, schedule: Q01DX009 (ip), vehicle: saline with Tween-80) was 112 % of control.
In the case of `C=C1CCC(Br)C2(C)CCC(C(C)(C)O)CC12` (configuration not stated), the T/C (dose: 2.0 mg/kg/injection, schedule: Q01DX009 (ip), vehicle: Klucel (hydroxypropylcellulose) (HPC)) is reported as 100 % of control, the T/C (dose: 4.0 mg/kg/injection, schedule: Q01DX009 (ip), vehicle: Klucel (hydroxypropylcellulose) (HPC)) is reported as 100 % of control and the T/C (dose: 8.0 mg/kg/injection, schedule: Q01DX009 (ip), vehicle: Klucel (hydroxypropylcellulose) (HPC)) is reported as 98 % of control. The T/C (dose: 16.0 mg/kg/injection, schedule: Q01DX009 (ip), vehicle: Klucel (hydroxypropylcellulose) (HPC)) was 99 % of control.
With `Cn1c2ccc(F)cc2c(=O)c2c(O)cc3c(c21)C=CC(C)(C)O3` the T/C [9] was 100 % of control, the T/C [10] was 102 % of control and the T/C [11] was 94 % of control.
In the case of `COC(=O)CC1C=CCC2C(=O)C=C(OC)C(=O)C12C` (configuration not stated), the T/C [9] is reported as 103 % of control, the T/C [10] is reported as 100 % of control and the T/C [11] is reported as 100 % of control.
For `Nc1cc(N)n(C2=NCCN2)n1`, the T/C (dose: 60.0 mg/kg/injection, schedule: Q01DX005 (ip), vehicle: saline) was 104 % of control, the T/C (dose: 120.0 mg/kg/injection, schedule: Q01DX005 (ip), vehicle: saline) was 104 % of control and the T/C (dose: 240.0 mg/kg/injection, schedule: Q01DX005 (ip), vehicle: saline) was 98 % of control.
For `CCOc1ccc(/C=C(\C(=O)c2ccccc2)S(=O)(=O)c2ccc(OC)cc2)cc1OC`, the T/C [4] was 92 % of control and the T/C [5] was 92 % of control.
`Cc1ccc(S(=O)(=O)N/N=C/c2c(Cl)n(C(=O)c3ccccc3C)c3ccccc23)cc1` was tested, and the T/C [12] was 97 % of control, the T/C (dose: 200.0 mg/kg/injection, schedule: Q01DX001 (ip), vehicle: Klucel (hydroxypropylcellulose) (HPC)) was 91 % of control and the T/C (dose: 400.0 mg/kg/injection, schedule: Q01DX001 (ip), vehicle: Klucel (hydroxypropylcellulose) (HPC)) was 89 % of control.
In the case of `Cc1c(Cl)c(C)c(Cl)c(O)c1Cl`, the T/C (dose: 100.0 mg/kg/injection, schedule: Q04DX003 (ip), vehicle: saline with Tween-80) is reported as 104 % of control, the T/C (dose: 200.0 mg/kg/injection, schedule: Q04DX003 (ip), vehicle: saline with Tween-80) is reported as 100 % of control and the T/C (dose: 400.0 mg/kg/injection, schedule: Q04DX003 (ip), vehicle: saline with Tween-80) is reported as 104 % of control.
In the case of `O=C1C(Cl)=C(Cl)C(Cl)(Cl)C(Cl)=C1Cl`, the T/C [13] is reported as 99 % of control, the T/C [14] is reported as 93 % of control and the T/C [12] is reported as 93 % of control.
With `CC1(C)N=C(N)N=C(N)N1c1cccc(CCCCc2ccccc2)c1` the T/C (dose: 0.75 mg/kg/injection, schedule: Q01DX009 (ip), vehicle: saline sonified) was 109 % of control, the T/C (dose: 1.5 mg/kg/injection, schedule: Q01DX009 (ip), vehicle: saline sonified) was 113 % of control and the T/C (dose: 3.0 mg/kg/injection, schedule: Q01DX009 (ip), vehicle: saline sonified) was 118 % of control. The T/C (dose: 50.0 mg/kg/injection, schedule: Q04DX003 (ip), vehicle: saline sonified) was 86 % of control.
For `COc1ccc(/C(=C/c2c(C(=O)O)oc3ccccc23)c2ccccc2)cc1`, the T/C (dose: 100.0 mg/kg/injection, schedule: Q01DX001 (ip), vehicle: saline with Tween-80) was 97 % of control and the T/C (dose: 200.0 mg/kg/injection, schedule: Q01DX001 (ip), vehicle: saline with Tween-80) was 99 % of control.
In the case of `O=[N+]([O-])c1ccc(N/N=C\c2cccc3c(/C=N/Nc4ccc([N+](=O)[O-])cc4[N+](=O)[O-])c(Cl)n(-c4ccccc4)c23)c([N+](=O)[O-])c1`, the T/C [13] is reported as 102 % of control, the T/C [14] is reported as 95 % of control and the T/C [12] is reported as 93 % of control.
In the case of `O=C(NCc1ccc(Cl)cc1)OCc1c2ccccc2cc2ccccc12`, the T/C [7] is reported as 95 % of control and the T/C [8] is reported as 93 % of control.
`CC(C)(C)OOC(=O)c1ccccc1O` was tested, and the T/C (dose: 100.0 mg/kg/injection, schedule: Q04DX003 (ip), vehicle: saline sonified) was 100 % of control and the T/C (dose: 200.0 mg/kg/injection, schedule: Q04DX003 (ip), vehicle: saline sonified) was 100 % of control.
For `COc1ccc(/C=N/NC(=O)C(=O)Nc2ccc(Cl)c([N+](=O)[O-])c2)cc1OC`, the T/C [4] was 93 % of control, the T/C [5] was 92 % of control and the T/C [6] was 103 % of control.
